Assay results reported in patent publication US8987195B2 (priority 2012, dated 2015).
Like-named read-outs stand apart in the source and are kept apart here.

How the values were obtained:
[1] = tested on: HCV genotype 1b replicon; assay: HCV replicon assay, genotype 1b replicon EC50; type: cell-based, Hepatitis C virus; conditions: Hepatitis C virus, HCV replicon, genotype 1b, read-out: EC50 [gt-1b]
In short: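 Potency comes from a four-parameter fit of signal as percent of DMSO control. Replicon-bearing cells were treated 24-48 hours with a compound dilution series in absence of G418, and replicon RNA was quantified normalized to cyclophilin A RNA, or luciferase read.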

[2] = target: HCV NS3/4A protease genotype 1b (Hepatitis C virus genotype 1b, UniProt P26663); assay: HCV NS3/4A protease time-resolved fluorescence (TRF) assay, Ki against genotype 1b; type: biochemical; conditions: IC50 [gt-1b], NS3/4A protease TRF assay, genotype 1b enzyme 0.2 nM
In short: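 Enzyme 0.2 nM 1b / 0.4 nM A156T / 0.025 nM 3a; 30 min preinc. w/ cpd; 25 nM TRF peptide; 2.5 h RT; ex 340/em 615 time-delayed; 4-param IC50 → Ki = IC50/(1+[S]/KM).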

Row | Structure (SMILES) | EC50 [1] | IC50 [2] | further results
1 | CC(C)COC(=O)N[C@H]1CCCCC/C=C\[C@@H]2C[C@@]2(C(=O)NS(=O)(=O)C2(C)CC2)NC(=O)[C@@H]2C[C@]3(CCc4c(c(C(F)(F)F)nc5ccc(OCCN6CCOCC6)cc45)O3)CN2C1=O [Example 471, 2-methylpropyl [(2R,6S,12Z,13aS,14aR,16aS)-14a-{[(1-methylcyclopropyl)sulfonyl]carbamoyl}-9′-[2-(morpholin-4-yl)ethoxy]-5,16-dioxo-5′-(trifluoromethyl)-1,1′,2′,5,6,7,8,9,10,11,13a,14,14a,15,16,16a-hexadecahydrospiro[cyclopropa[e]pyrrolo[1,2-a][1,4]diazacyclopentadecine-2,3′-pyrano[2,3-c]quinolin]-6-yl]carbamate] | – | – | EC50 ([1]; HCl salt): 3.06 nM; IC50 ([2]; HCl salt): 0.021 nM
2 | CC(C)(C)COC(=O)N[C@H]1CCCCC/C=C\[C@@H]2C[C@@]2(C(=O)NS(=O)(=O)C2(C)CC2)NC(=O)[C@@H]2C[C@]3(CCc4c(c(C(F)(F)F)nc5ccc(OCCN6CCOCC6)cc45)O3)CN2C1=O [Example 472, 2,2-dimethylpropyl [(2R,6S,12Z,13aS,14aR,16aS)-14a-{[(1-methylcyclopropyl)sulfonyl]carbamoyl}-9′-[2-(morpholin-4-yl)ethoxy]-5,16-dioxo-5′-(trifluoromethyl)-1,1′,2′,5,6,7,8,9,10,11,13a,14,14a,15,16,16a-hexadecahydrospiro[cyclopropa[e]pyrrolo[1,2-a][1,4]diazacyclopentadecine-2,3′-pyrano[2,3-c]quinolin]-6-yl]carbamate] | – | – | EC50 ([1]; HCl salt): 3.43 nM; IC50 ([2]; HCl salt): 0.02 nM
3 | COCC1(S(=O)(=O)NC(=O)[C@@]23C[C@H]2/C=C\CCCCC[C@H](NC(=O)OCC(C)C)C(=O)N2C[C@@]4(CCc5c(c(C(F)(F)F)nc6ccc(OC)cc56)O4)C[C@H]2C(=O)N3)CC1 [Example 473, 2-methylpropyl [(2R,6S,12Z,13aS,14aR,16aS)-9′-methoxy-14a-({[1-(methoxymethyl)cyclopropyl]sulfonyl}carbamoyl)-5,16-dioxo-5′-(trifluoromethyl)-1,1′,2′,5,6,7,8,9,10,11,13a,14,14a,15,16,16a-hexadecahydrospiro[cyclopropa[e]pyrrolo[1,2-a][1,4]diazacyclopentadecine-2,3′-pyrano[2,3-c]quinolin]-6-yl]carbamate] | 2.27 nM | 0.031 nM | –
4 | CC(C)[C@H](C)OC(=O)N[C@H]1CCCCC/C=C\[C@@H]2C[C@@]2(C(=O)NS(=O)(=O)C2(C)CC2)NC(=O)[C@@H]2C[C@]3(CCc4c(c(C(F)(F)F)nc5ccc(OCCN6CCOCC6)cc45)O3)CN2C1=O [Example 474, (2S)-3-methylbutan-2-yl [(2R,6S,12Z,13aS,14aR,16aS)-14a-{[(1-methylcyclopropyl)sulfonyl]carbamoyl}-9′-[2-(morpholin-4-yl)ethoxy]-5,16-dioxo-5′-(trifluoromethyl)-1,1′,2′,5,6,7,8,9,10,11,13a,14,14a,15,16,16a-hexadecahydrospiro[cyclopropa[e]pyrrolo[1,2-a][1,4]diazacyclopentadecine-2,3′-pyrano[2,3-c]quinolin]-6-yl]carbamate] | 1.73 nM | 0.033 nM | –
5 | CCCOC(=O)N[C@H]1CCCCC/C=C\[C@@H]2C[C@@]2(C(=O)NS(=O)(=O)C2(C)CC2)NC(=O)[C@@H]2C[C@]3(CCc4c(c(C(F)F)nc5ccc(OC)cc45)O3)CN2C1=O [Example 475, propyl [(2R,6S,12Z,13aS,14aR,16aS)-5′-(difluoromethyl)-9′-methoxy-14a-{[(1-methylcyclopropyl)sulfonyl]carbamoyl}-5,16-dioxo-1,1′,2′,5,6,7,8,9,10,11,13a,14,14a,15,16,16a-hexadecahydrospiro[cyclopropa[e]pyrrolo[1,2-a][1,4]diazacyclopentadecine-2,3′-pyrano[2,3-c]quinolin]-6-yl]carbamate] | – | – | EC50 ([1]; K+ salt): 2.39 nM; IC50 ([2]; K+ salt): 0.005 nM
6 | COCC1(S(=O)(=O)NC(=O)[C@@]23C[C@H]2/C=C\CCCCC[C@H](NC(=O)OC(C)(C)C)C(=O)N2C[C@@]4(CCc5c(c(C(F)F)nc6ccc(OC)cc56)O4)C[C@H]2C(=O)N3)CC1 [Example 476, tert-butyl [(2R,6S,12Z,13aS,14aR,16aS)-5′-(difluoromethyl)-9′-methoxy-14a-({[1-(methoxymethyl)cyclopropyl]sulfonyl}carbamoyl)-5,16-dioxo-1,1′,2′,5,6,7,8,9,10,11,13a,14,14a,15,16,16a-hexadecahydrospiro[cyclopropa[e]pyrrolo[1,2-a][1,4]diazacyclopentadecine-2,3′-pyrano[2,3-c]quinolin]-6-yl]carbamate] | 4.35 nM | 0.012 nM | –
7 | CC[C@H](C)OC(=O)N[C@H]1CCCCC/C=C\[C@@H]2C[C@@]2(C(=O)NS(=O)(=O)C2(COC)CC2)NC(=O)[C@@H]2C[C@]3(CCc4c(c(C(F)F)nc5ccc(OC)cc45)O3)CN2C1=O [Example 477, (2S)-butan-2-yl [(2R,6S,12Z,13aS,14aR,16aS)-5′-(difluoromethyl)-9′-methoxy-14a-({[1-(methoxymethyl)cyclopropyl]sulfonyl}carbamoyl)-5,16-dioxo-1,1′,2′,5,6,7,8,9,10,11,13a,14,14a,15,16,16a-hexadecahydrospiro[cyclopropa[e]pyrrolo[1,2-a][1,4]diazacyclopentadecine-2,3′-pyrano[2,3-c]quinolin]-6-yl]carbamate] | – | – | EC50 ([1]; K+ salt): 5.05 nM; IC50 ([2]; K+ salt): 0.019 nM
8 | COCC1(S(=O)(=O)NC(=O)[C@@]23C[C@H]2/C=C\CCCCC[C@H](NC(=O)O[C@@H](C)C(C)C)C(=O)N2C[C@@]4(CCc5c(c(C(F)F)nc6ccc(OC)cc56)O4)C[C@H]2C(=O)N3)CC1 [Example 478, (2S)-3-methylbutan-2-yl [(2R,6S,12Z,13aS,14aR,16aS)-5′-(difluoromethyl)-9′-methoxy-14a-({[1-(methoxymethyl)cyclopropyl]sulfonyl}carbamoyl)-5,16-dioxo-1,1′,2′,5,6,7,8,9,10,11,13a,14,14a,15,16,16a-hexadecahydrospiro[cyclopropa[e]pyrrolo[1,2-a][1,4]diazacyclopentadecine-2,3′-pyrano[2,3-c]quinolin]-6-yl]carbamate] | 5.8 nM | 0.016 nM | –
9 | CCc1nc2ccc(OCCCOC)cc2c2c1O[C@]1(CC2)C[C@H]2C(=O)N[C@]3(C(=O)NS(=O)(=O)C4(C)CC4)C[C@H]3/C=C\CCCCC[C@H](NC(=O)OC(C)(C)C)C(=O)N2C1 [Example 479, tert-butyl [(2R,6S,12Z,13aS,14aR,16aS)-5′-ethyl-9′-(3-methoxypropoxy)-14a-{[(1-methylcyclopropyl)sulfonyl]carbamoyl}-5,16-dioxo-1,1′,2′,5,6,7,8,9,10,11,13a,14,14a,15,16,16a-hexadecahydrospiro[cyclopropa[e]pyrrolo[1,2-a][1,4]diazacyclopentadecine-2,3′-pyrano[2,3-c]quinolin]-6-yl]carbamate] | 1.05 nM | 0.005 nM | –
10 | CCc1nc2ccc(OC)cc2c2c1O[C@]1(CC2)C[C@H]2C(=O)N[C@]3(C(=O)NS(=O)(=O)C4(C)CC4)C[C@H]3/C=C\CCCCC[C@H](NC(=O)c3sccc3C)C(=O)N2C1 [Example 480, (2R,6S,12Z,13aS,14aR,16aS)-5′-ethyl-9′-methoxy-N-[(1-methylcyclopropyl)sulfonyl]-6-{[(3-methylthiophen-2-yl)carbonyl]amino}-5,16-dioxo-1,1′,2′,6,7,8,9,10,11,13a,14,15,16,16a-tetradecahydrospiro[cyclopropa[e]pyrrolo[1,2-a][1,4]diazacyclopentadecine-2,3′-pyrano[2,3-c]quinoline]-14a(5H)-carboxamide] | 0.266 nM | 0.006 nM | –
11 | CCc1nc2ccc(OC)cc2c2c1O[C@]1(CC2)C[C@H]2C(=O)N[C@]3(C(=O)NS(=O)(=O)C4(C)CC4)C[C@H]3/C=C\CCCCC[C@H](NC(=O)c3c(C)n[nH]c3C)C(=O)N2C1 [Example 485, (2R,6S,12Z,13aS,14aR,16aS)-6-{[(3,5-dimethyl-1H-pyrazol-4-yl)carbonyl]amino}-5′-ethyl-9′-methoxy-N-[(1-methylcyclopropyl)sulfonyl]-5,16-dioxo-1,1′,2′,6,7,8,9,10,11,13a,14,15,16,16a-tetradecahydrospiro[cyclopropa[e]pyrrolo[1,2-a][1,4]diazacyclopentadecine-2,3′-pyrano[2,3-c]quinoline]-14a(5H)-carboxamide] | 0.306 nM | 0.005 nM | –
12 | CCc1nc2ccc(OC)cc2c2c1O[C@]1(CC2)C[C@H]2C(=O)N[C@]3(C(=O)NS(=O)(=O)C4(C)CC4)C[C@H]3/C=C\CCCCC[C@H](NC(=O)O[C@@H](C)C3CC3)C(=O)N2C1 [Example 486, (1S)-1-cyclopropylethyl [(2R,6S,12Z,13aS,14aR,16aS)-5′-ethyl-9′-methoxy-14a-{[(1-methylcyclopropyl)sulfonyl]carbamoyl}-5,16-dioxo-1,1′,2′,5,6,7,8,9,10,11,13a,14,14a,15,16,16a-hexadecahydrospiro[cyclopropa[e]pyrrolo[1,2-a][1,4]diazacyclopentadecine-2,3′-pyrano[2,3-c]quinolin]-6-yl]carbamate] | 15.2 nM | 0.01 nM | –
